pIC50: −log10 of the molar value.
The compounds below were run against T1, Recombinant human KIF18A (1-467 His-tagged) protein (Homo sapiens, UniProt Q8NI77) (assay: KIF18A Enzyme Assay: microtubule-stimulated ATPase activity (ADP-Glo)). Settings: 30 nM KIF18A, 75 μM ATP.
T1 construct: Recombinant human KIF18A (1-467 His-tagged) protein; His; made in house
Assay type: biochemical
From the text: KIF18A Enzyme Assay: Microtubule-stimulated ATPase activity assay is used to measure KIF18A enzyme activity after treatment with compound. Compounds were 2-fold serially diluted in DMSO (Sigma Inc) over 22-point concentration range. Recombinant human KIF18A (1-467 His-tagged) protein was expressed using a baculovirus system and purified by affinity chromatography by Amgen Inc. Concentrations of KIF18A protein, microtubules (MT), and ATP in the reaction were optimized for standardized homogenous enzyme assay using ADP-Glorm Kinase/ATPase Assay Kit (Promega Inc). The assay measures ADP formed from the ATPase reaction. […] Read luminescence using EnVision microplate reader with ultra-luminescence module (Perkin Elmer Inc). Concentration-response curve-fitting and IC50 determination was performed using Genedata Screener Software (Standard 15.0.1, Genedata Inc) with a four-parameter logistic regression fit model.
Table A provides data for compounds exemplified in the present application and priority document thereof, as representative compounds of the present invention, as follows: chemical name (as named by either ACD software or ChemDraw (Professional 15.0)) and biological data (IC50 in μM). Ex. # refers to Example No.

T1 sequence (Q8NI77 1-467): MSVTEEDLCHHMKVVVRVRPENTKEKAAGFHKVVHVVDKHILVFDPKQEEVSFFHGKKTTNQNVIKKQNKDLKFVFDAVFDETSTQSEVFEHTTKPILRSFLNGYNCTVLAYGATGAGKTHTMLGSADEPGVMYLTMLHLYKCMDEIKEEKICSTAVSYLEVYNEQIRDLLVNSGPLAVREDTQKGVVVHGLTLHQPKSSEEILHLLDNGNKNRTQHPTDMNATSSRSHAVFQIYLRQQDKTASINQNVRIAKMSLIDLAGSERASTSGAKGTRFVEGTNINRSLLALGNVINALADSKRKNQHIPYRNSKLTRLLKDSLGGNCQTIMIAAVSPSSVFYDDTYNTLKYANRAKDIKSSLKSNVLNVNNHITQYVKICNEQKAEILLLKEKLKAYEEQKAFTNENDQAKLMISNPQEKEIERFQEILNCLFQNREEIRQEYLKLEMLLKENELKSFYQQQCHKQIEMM
T1 sequence (P02550 whole entry partner): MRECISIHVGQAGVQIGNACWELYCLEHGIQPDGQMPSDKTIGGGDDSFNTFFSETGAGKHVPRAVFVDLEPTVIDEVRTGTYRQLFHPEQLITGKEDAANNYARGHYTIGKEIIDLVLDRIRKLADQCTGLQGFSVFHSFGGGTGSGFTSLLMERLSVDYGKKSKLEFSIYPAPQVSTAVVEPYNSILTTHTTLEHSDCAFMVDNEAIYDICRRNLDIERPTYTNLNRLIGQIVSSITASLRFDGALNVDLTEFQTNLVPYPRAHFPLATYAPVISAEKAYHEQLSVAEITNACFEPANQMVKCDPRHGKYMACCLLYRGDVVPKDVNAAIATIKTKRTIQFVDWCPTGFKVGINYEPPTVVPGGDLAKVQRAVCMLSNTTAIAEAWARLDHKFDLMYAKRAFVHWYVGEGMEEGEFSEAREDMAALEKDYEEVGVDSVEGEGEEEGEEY
T1 sequence (P02554 whole entry partner): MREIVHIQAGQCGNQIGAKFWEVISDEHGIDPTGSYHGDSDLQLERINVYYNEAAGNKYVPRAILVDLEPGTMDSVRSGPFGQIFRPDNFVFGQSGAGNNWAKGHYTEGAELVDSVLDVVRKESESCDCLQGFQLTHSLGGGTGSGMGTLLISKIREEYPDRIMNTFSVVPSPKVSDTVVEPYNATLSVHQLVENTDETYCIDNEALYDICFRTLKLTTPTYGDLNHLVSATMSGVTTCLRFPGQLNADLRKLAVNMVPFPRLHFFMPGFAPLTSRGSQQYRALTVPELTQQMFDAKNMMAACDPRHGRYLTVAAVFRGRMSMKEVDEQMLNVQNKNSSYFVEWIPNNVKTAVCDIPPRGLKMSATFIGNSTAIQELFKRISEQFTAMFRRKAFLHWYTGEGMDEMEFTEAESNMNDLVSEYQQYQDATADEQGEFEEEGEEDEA

**Q.** How did the pIC50 turn out when `Cc1ccc(NC(=O)c2ccc(NC(C)(C)CO)nc2N2CCC3(CC2)CC3)cc1-c1ccco1` [Example 111-2, N-(3-(furan-2-yl)-4-methylphenyl)-6-((1-hydroxy-2-methylpropan-2-yl)amino)-2-(6-azaspiro[2.5]octan-6-yl)nicotinamide] was run?
**A.** Its pIC50 is 6.56.

**Q.** `O=C(Nc1cccc(S(=O)(=O)C2CCCC2)c1F)c1cccnc1N1CCC2(CC1)CC2` [Example 100-21, N-(3-(cyclopentylsulfonyl)-2-fluorophenyl)-2-(6-azaspiro[2.5]octan-6-yl)nicotinamide] was tested. Which pIC50 did it give?
**A.** The pIC50 was 6.12.

**Q.** How did the pIC50 turn out when `O=C(Nc1cccc(S(=O)(=O)C2CCCC2)c1)c1ccc(N[C@@H]2CC[C@H]2O)nc1N1CCC2(CC1)CC2` [Example 103-14, N-(3-(cyclopentylsulfonyl)phenyl)-6-(((1R,2R)-2-hydroxycyclobutyl)amino)-2-(6-azaspiro[2.5]octan-6-yl)nicotinamide] was run?
**A.** The pIC50 was 6.79.

**Q.** `CC(C)(CO)Nc1ccc(C(=O)Nc2cccc(S(=O)(=O)NC3CC3)c2)c(N2CCC3(CC2)CC3)n1` [Example 105-14, N-(3-(N-cyclopropylsulfamoyl)phenyl)-6-((1-hydroxy-2-methylpropan-2-yl)amino)-2-(6-azaspiro[2.5]octan-6-yl)nicotinamide] was tested. Which pIC50 did it give?
**A.** The pIC50 was 7.48.

**Q.** How did the pIC50 turn out when `O=C(Nc1cccc(S(=O)(=O)C2CCCC2)c1)c1ccc(NCCO)nc1N1CCC2(CCC2)CC1` [Example 103-24, N-(3-(cyclopentylsulfonyl)phenyl)-6-((2-hydroxyethyl)amino)-2-(7-azaspiro[3.5]nonan-7-yl)nicotinamide] was run?
**A.** The pIC50 was 7.44.

**Q.** With `CN(C)CCNc1ccc(C(=O)Nc2cccc(S(=O)(=O)C3CCCC3)c2)c(N2CCC3(CC2)CC3)n1` [Example 103-22, N-(3-(cyclopentylsulfonyl)phenyl)-6-((2-(dimethylamino)ethyl)amino)-2-(6-azaspiro[2.5]octan-6-yl)nicotinamide] as the compound, how does the pIC50 read?
**A.** Its pIC50 is 6.17.

**Q.** With `O=C(Nc1cccc(S(=O)(=O)C2CCCC2)c1)c1cccnc1N1CCC2(CC1)CC2` [Example 100-14, N-(3-(cyclopentylsulfonyl)phenyl)-2-(6-azaspiro[2.5]octan-6-yl)nicotinamide] as the compound, how does the pIC50 read?
**A.** The pIC50 was 6.54.

**Q.** With `CC(C)(C)NS(=O)(=O)c1cccc(NC(=O)c2ccc(N[C@@H]3CCOC3)nc2N2CCC3(CC2)CC3)c1` [Example 102-21, (R)-N-(3-(N-(tert-butyl)sulfamoyl)phenyl)-2-(6-azaspiro[2.5]octan-6-yl)-6-((tetrahydrofuran-3-yl)amino)nicotinamide] as the compound, how does the pIC50 read?
**A.** The pIC50 was 6.87.

**Q.** `CC1(NS(=O)(=O)c2cccc(NC(=O)c3cccnc3N3CCC4(CC3)CC4)c2)CC1` [Example 101-7, N-(3-(N-(1-methylcyclopropyl)sulfamoyl)phenyl)-2-(6-azaspiro[2.5]octan-6-yl)nicotinamide] was tested. Which pIC50 did it give?
**A.** The pIC50 was 6.49.

**Q.** `C[C@H](CO)Nc1ccc(C(=O)Nc2cccc(S(=O)(=O)C3CCCC3)c2)c(N2CCC3(CC2)CC3)n1` [Example 103-10, (R)-N-(3-(cyclopentylsulfonyl)phenyl)-6-((1-hydroxypropan-2-yl)amino)-2-(6-azaspiro[2.5]octan-6-yl)nicotinamide] was tested. Which pIC50 did it give?
**A.** Its pIC50 is 7.38.

**Q.** With `CC(C)(C)NS(=O)(=O)c1cc(Br)cc(NC(=O)c2ccc(NC(C)(C)CO)nc2N2CCC3(CC2)CC3)c1` [Example 105-24, N-(3-bromo-5-(N-(tert-butyl)sulfamoyl)phenyl)-6-((1-hydroxy-2-methylpropan-2-yl)amino)-2-(6-azaspiro[2.5]octan-6-yl)nicotinamide] as the compound, how does the pIC50 read?
**A.** Its pIC50 is 6.84.

**Q.** How did the pIC50 turn out when `O=C(Nc1cccc(S(=O)(=O)C2CCCC2)c1)c1ccc(NC(CO)CO)nc1N1CCC2(CC1)CC2` [Example 106, N-(3-(Cyclopentylsulfonyl)phenyl)-6-((1,3-dihydroxypropan-2-yl)amino)-2-(6-azaspiro[2.5]octan-6-yl)nicotinamide] was run?
**A.** Its pIC50 is 7.27.

**Q.** How did the pIC50 turn out when `O=C(Nc1cccc(S(=O)(=O)NC2CC(F)(F)C2)c1)c1cccnc1N1CCC2(CC1)CC2` [Example 101-9, N-(3-(N-(3,3-difluorocyclobutyl)sulfamoyl)phenyl)-2-(6-azaspiro[2.5]octan-6-yl)nicotinamide] was run?
**A.** The pIC50 was 6.32.

**Q.** How did the pIC50 turn out when `CC(C)(C)NS(=O)(=O)c1cccc(NC(=O)c2ccc(N3C[C@H]4C[C@@H]3CO4)nc2N2CCC3(CC2)CC3)c1` [Example 102-8, 6-((1R,4R)-2-oxa-5-azabicyclo[2.2.1]heptan-5-yl)-N-(3-(N-(tert-butyl)sulfamoyl)phenyl)-2-(6-azaspiro[2.5]octan-6-yl)nicotinamide] was run?
**A.** The pIC50 was 6.98.

**Q.** How did the pIC50 turn out when `O=C(Nc1cccc(S(=O)(=O)C2CCCC2)c1)c1ccc(N[C@H]2CCOC2)nc1N1CCC2(CC1)CC2` [Example 103-16, (S)-N-(3-(cyclopentylsulfonyl)phenyl)-2-(6-azaspiro[2.5]octan-6-yl)-6-((tetrahydrofuran-3-yl)amino)nicotinamide] was run?
**A.** Its pIC50 is 6.94.

**Q.** How did the pIC50 turn out when `CC(C)(C)NS(=O)(=O)c1cccc(NC(=O)c2ccc(NC3(C)COC3)nc2N2CCC3(CC2)CC3)c1` [Example 102-26, N-(3-(N-(tert-butyl)sulfamoyl)phenyl)-6-((3-methyloxetan-3-yl)amino)-2-(6-azaspiro[2.5]octan-6-yl)nicotinamide] was run?
**A.** Its pIC50 is 7.25.

**Q.** `CC(C)(C)NS(=O)(=O)c1cccc(NC(=O)c2ccc(NC3(CO)CC3)nc2N2CCC3(CC2)CC3)c1` [Example 105-11, N-(3-(N-(tert-butyl)sulfamoyl)phenyl)-6-((1-(hydroxymethyl)cyclopropyl)amino)-2-(6-azaspiro[2.5]octan-6-yl)nicotinamide] was tested. Which pIC50 did it give?
**A.** The pIC50 was 7.03.

**Q.** With `CC(C)(CO)Nc1ccc(C(=O)Nc2cccc(S(=O)(=O)NC3(C)CCC3)c2)c(N2CCC3(CC2)CC3)n1` [Example 105-13, 6-((1-hydroxy-2-methylpropan-2-yl)amino)-N-(3-(N-(1-methylcyclobutyl)sulfamoyl)phenyl)-2-(6-azaspiro[2.5]octan-6-yl)nicotinamide] as the compound, how does the pIC50 read?
**A.** The pIC50 was 7.25.

**Q.** How did the pIC50 turn out when `O=C(Nc1cccc(S(=O)(=O)C2CCCCC2)c1)c1cccnc1N1CCC2(CC1)CC2` [Example 100-23, N-(3-(cyclohexylsulfonyl)phenyl)-2-(6-azaspiro[2.5]octan-6-yl)nicotinamide] was run?
**A.** Its pIC50 is 6.21.

**Q.** How did the pIC50 turn out when `Cc1noc(-c2cccc(NC(=O)c3ccc(NC(C)(C)CO)nc3N3CCC4(CC3)CC4)c2)n1` [Example 111-7, 6-((1-hydroxy-2-methylpropan-2-yl)amino)-N-(3-(3-methyl-1,2,4-oxadiazol-5-yl)phenyl)-2-(6-azaspiro[2.5]octan-6-yl)nicotinamide] was run?
**A.** Its pIC50 is 6.38.

**Q.** `O=C(Nc1cccc(S(=O)(=O)NC2CC2)c1)c1ccc(NC2(CO)CC2)nc1N1CCC2(CC1)CC2` [Example 105-15, N-(3-(N-cyclopropylsulfamoyl)phenyl)-6-((1-(hydroxymethyl)cyclopropyl)amino)-2-(6-azaspiro[2.5]octan-6-yl)nicotinamide] was tested. Which pIC50 did it give?
**A.** The pIC50 was 6.10.

**Q.** `Cc1ccc(NC(=O)c2ccncc2N2CCC3(CC2)CC3)cc1C(=O)N1CCCC(F)(F)C1` [Example 115, N-(3-(3,3-difluoropiperidine-1-carbonyl)-4-methylphenyl)-3-(6-azaspiro[2.5]octan-6-yl)isonicotinamide] was tested. Which pIC50 did it give?
**A.** Its pIC50 is 6.22.

**Q.** With `Cc1ccc(NC(=O)c2ccc(NC(C)(C)CO)nc2N2CCC3(CC2)CC3)cc1-c1cccnc1` [Example 111-11, 6-((1-hydroxy-2-methylpropan-2-yl)amino)-N-(4-methyl-3-(pyridin-3-yl)phenyl)-2-(6-azaspiro[2.5]octan-6-yl)nicotinamide] as the compound, how does the pIC50 read?
**A.** The pIC50 was 6.51.

**Q.** With `CC(C)(C)NS(=O)(=O)c1cccc(NC(=O)c2ccc([C@@](C)(O)CO)nc2N2CCC3(CC2)CC3)c1` (single isomer, unassigned) [Example 109-2] as the compound, how does the pIC50 read?
**A.** The pIC50 was 7.19.

**Q.** `O=C(Nc1cccc(S(=O)(=O)C2CCCC2)c1)c1ccc(NC2COC2)nc1N1CCC2(CC1)CC2` [Example 103-13, N-(3-(cyclopentylsulfonyl)phenyl)-6-(oxctan-3-ylamino)-2-(6-azaspiro[2.5]octan-6-yl)nicotinamide] was tested. Which pIC50 did it give?
**A.** Its pIC50 is 7.37.

**Q.** With `CC(C)(C)NS(=O)(=O)c1cccc(NC(=O)c2ccc(N[C@H]3CCC[C@H]3O)nc2N2CCC3(CC2)CC3)c1` [Example 102-19, N-(3-(N-(tert-butyl)sulfamoyl)phenyl)-6-(((1S,2R)-2-hydroxycyclopentyl)amino)-2-(6-azaspiro[2.5]octan-6-yl)nicotinamide] as the compound, how does the pIC50 read?
**A.** Its pIC50 is 6.80.

**Q.** How did the pIC50 turn out when `CC(C)(C)NS(=O)(=O)c1cccc(NC(=O)c2ccc(N3C[C@H]4C[C@H]4C3)nc2N2CCC3(CC2)CC3)c1` [Example 102-5] was run?
**A.** Its pIC50 is 6.72.

**Q.** With `CC(C)CS(=O)(=O)c1cccc(NC(=O)c2ccc(NC(C)(C)CO)nc2N2CCC3(CC2)CC3)c1` [Example 105-4, 6-((1-hydroxy-2-methylpropan-2-yl)amino)-N-(3-(isobutylsulfonyl)phenyl)-2-(6-azaspiro[2.5]octan-6-yl)nicotinamide] as the compound, how does the pIC50 read?
**A.** Its pIC50 is 7.38.

**Q.** How did the pIC50 turn out when `CC(C)(C)NS(=O)(=O)c1cccc(NC(=O)c2ccc(NC3(CO)COC3)nc2N2CCC3(CC2)CC3)c1` [Example 102-27, N-(3-(N-(tert-butyl)sulfamoyl)phenyl)-6-((3-(hydroxymethyl)oxetan-3-yl)amino)-2-(6-azaspiro[2.5]octan-6-yl)nicotinamide] was run?
**A.** The pIC50 was 7.10.

**Q.** With `Cc1ccc(NC(=O)c2ccc(NC(C)(C)CO)nc2N2CCC3(CC2)CC3)cc1N1CCOCC1` [Example 105-30, 6-((1-hydroxy-2-methylpropan-2-yl)amino)-N-(4-methyl-3-morpholinophenyl)-2-(6-azaspiro[2.5]octan-6-yl)nicotinamide] as the compound, how does the pIC50 read?
**A.** The pIC50 was 6.58.

**Q.** With `Cc1ccc(NC(=O)c2cccnc2N2CCC3(CC2)CC3)cc1S(=O)(=O)N1CCCCC1` [Example 100-10, N-(4-methyl-3-(piperidin-1-ylsulfonyl)phenyl)-2-(6-azaspiro[2.5]octan-6-yl)nicotinamide] as the compound, how does the pIC50 read?
**A.** Its pIC50 is 6.68.

— patent US12540129B2, “KIF18A inhibitors” (AMGEN INC., priority 2019, dated 2026)
